Measurements published in PubChem BioAssay AID1963975 (Molecular Pharmacology Branch, DTP, NCI, 2024).

Test system: 624824-186-R-J2-PDC multicell spheroids, viability
Experiment: Anticancer human tumor 624824-186-R-J2-PDC patient-derived colon adenocarcinoma cell line growth inhibition [PI3K]
Conditions: for IC50: curve of first compound; for viability, T/C: stronger effect = lower value
Description: Combinatorial screen of targeted agents with the PI3K inhibitors inavolisib, alpelisib, duvelisib, and copanlisib in multi-cell type tumor spheroids
A high-throughput screen of multi-cell type tumor spheroids was designed to identify active combinations of targeted small molecules and PI3K pathway inhibitors. Complex spheroids include a stromal component modeled by human endothelial cells (HUVEC) and fibroblasts modeled by human mesenchymal stem cells (MSCs). The concentration ranges selected for each drug and investigational agent were based upon clinically achievable concentrations if the clinical Cmax of the agent was known.
Compounds. The drugs and investigational agents: inavolisib (NSC800729), alpelisib (NSC765974), duvelisib (NSC772469), copanlisib (NSC816437), ipatasertib (NSC767898), afuresertib (NSC778305), talazoparib (NSC767125), sapanisertib (NSC764658), selumetinib (NSC741078), tovorafenib (DAY101, NSC766906), vemurafenib (NSC761431), ravoxertinib (NSC781343), sotorasib (NSC818433), MRTX1133 (NSC 836407), abemaciclib (NSC 768073), palbociclib (NSC758247), venetoclax (NSC 766270), SY5609 (NSC837396), enzalutamide (NSC755605), and darolutamide (NSC825331), were obtained from the National Cancer Institute (NCI) Developmental Therapeutics Program Chemical Repository. The FDA-approved anticancer drug set is available from the NCI Developmental Therapeutics Program. […] The stock solutions were prepared in dimethyl sulfoxide (DMSO, Sigma-Aldrich, St. Louis, MO, cat. D2650) at 800-fold the tested concentration and stored at -70 degrees C prior to their use. All drugs and investigational agents were tested over a range starting from a high concentration at or near the clinical Cmax and decreasing in half-log increments. If the clinical Cmax for an agent had not been determined, the highest concentration tested was 10 microM.
Cell Culture. All cells were maintained in an incubator at 37 degrees C and 5% CO2 with 95% humidity. The PDC lines were cultured according to standard operating procedures established by the NCI PDMR (https://pdmr.cancer.gov/sops/default.htm). All PDCs were thawed and cultured in Matrigel-coated flasks prepared with a working solution of 1X Ham's F-12 nutrient mix, without supplementation (Invitrogen, Waltham, MA, cat. 11765054), 100 U/mL penicillin-streptomycin (Invitrogen, cat. 15140122), and 2.5% Matrigel (Corning Inc., Corning, NY, cat. 354248) for the first three passages. The 354836-022-R-J1-PDC, 475296-252-R-J1-PDC, and 997726-040-R-J2-PDC lines were cultured in 6A media, which includes advanced DMEM/F-12 (Thermo Fisher Scientific, cat. 12634028), 10 mM HEPES (Thermo Fisher Scientific, cat. 15630080), 1X GlutaMAX supplement (Thermo Fisher Scientific, cat. 35050061), 0.1 mg/mL primocin (InvivoGen, San Diego, CA, cat. ant-pm-2), 10% defined fetal bovine serum, heat inactivated (HyClone Laboratories Inc., Logan, UT, cat. SH30070.03HI), 50% L-WRN conditioned media (ATCC, cat. CRL-3276), 1.25 mM N-Acetyl-L-cysteine (Sigma-Aldrich, cat. A9165), 10 mM nicotinamide (Sigma-Aldrich, cat. N0636), 1X B-27 supplement (Thermo Fisher Scientific, cat. 17504044), 1X N-2 supplement (Thermo Fisher Scientific, cat. 17502048), and 10 microM Y-27632 dihydrochloride (Tocris Bioscience, Bristol, United Kingdom, cat. 1254). The 624824-186-R-J2-PDC line was cultured in 6C/Colon 1B media, which includes all 6A media components plus 50 ng/mL human EGF recombinant protein (Thermo Fisher Scientific, cat. PHG0311). […]
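Further: spheroids exposed to agents for 7 days before viability read.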
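Wherever viability, T/C is given: 100% = DMSO vehicle treated spheroids.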

For CC(=O)c1c(C)c2cnc(Nc3ccc(N4CCNCC4)cn3)nc2n(C2CCCC2)c1=O + CC(Nc1ncnc2nc[nH]c12)c1cc2cccc(Cl)c2c(=O)n1-c1ccccc1, the IC50 (second compound 0.0316 µM) was over 100 nM, the IC50 (second compound 0.1 µM) was over 100 nM and the IC50 (second compound 0.316 µM) was over 100 nM. It also gave an IC50 (second compound 1 µM) of over 100 nM, an IC50 (second compound 3.16 µM) of over 100 nM and an IC50 (second compound 10 µM) of over 100 nM. For the same compound, the viability, T/C (second compound 0.0316 µM, first compound 0.000316 µM) was 78.8%, the viability, T/C (second compound 0.0316 µM, first compound 0.001 µM) was 118% and the viability, T/C (second compound 0.0316 µM, first compound 0.00316 µM) was 98.7%. It also gave a viability, T/C (second compound 0.0316 µM, first compound 0.01 µM) of 98.5%, a viability, T/C (second compound 0.0316 µM, first compound 0.0316 µM) of 80.5% and a viability, T/C (second compound 0.0316 µM, first compound 0.1 µM) of 86.1%. It also gave a viability, T/C (second compound 0.1 µM, first compound 0.000316 µM) of 107%, a viability, T/C (second compound 0.1 µM, first compound 0.001 µM) of 85.2% and a viability, T/C (second compound 0.1 µM, first compound 0.00316 µM) of 84.4%. The viability, T/C (second compound 0.1 µM, first compound 0.01 µM) was 79.9%, the viability, T/C (second compound 0.1 µM, first compound 0.0316 µM) was 90% and the viability, T/C (second compound 0.1 µM, first compound 0.1 µM) was 93.5%. For the same compound, the viability, T/C (second compound 0.316 µM, first compound 0.000316 µM) was 121%, the viability, T/C (second compound 0.316 µM, first compound 0.001 µM) was 134% and the viability, T/C (second compound 0.316 µM, first compound 0.00316 µM) was 79.8%. The viability, T/C (second compound 0.316 µM, first compound 0.01 µM) was 77.5%, the viability, T/C (second compound 0.316 µM, first compound 0.0316 µM) was 78.2% and the viability, T/C (second compound 0.316 µM, first compound 0.1 µM) was 93%. For the same compound, the viability, T/C (second compound 1 µM, first compound 0.000316 µM) was 111%, the viability, T/C (second compound 1 µM, first compound 0.001 µM) was 96.6% and the viability, T/C (second compound 1 µM, first compound 0.00316 µM) was 89.5%. It also gave a viability, T/C (second compound 1 µM, first compound 0.01 µM) of 108%, a viability, T/C (second compound 1 µM, first compound 0.0316 µM) of 88.6% and a viability, T/C (second compound 1 µM, first compound 0.1 µM) of 92.6%. The viability, T/C (second compound 3.16 µM, first compound 0.000316 µM) was 98.8%, the viability, T/C (second compound 3.16 µM, first compound 0.001 µM) was 83.6% and the viability, T/C (second compound 3.16 µM, first compound 0.00316 µM) was 91.9%. For the same compound, the viability, T/C (second compound 3.16 µM, first compound 0.01 µM) was 111%, the viability, T/C (second compound 3.16 µM, first compound 0.0316 µM) was 88.5% and the viability, T/C (second compound 3.16 µM, first compound 0.1 µM) was 84%. It also gave a viability, T/C (second compound 10 µM, first compound 0.000316 µM) of 112%, a viability, T/C (second compound 10 µM, first compound 0.001 µM) of 110% and a viability, T/C (second compound 10 µM, first compound 0.00316 µM) of 107%. It also gave a viability, T/C (second compound 10 µM, first compound 0.01 µM) of 96.3%, a viability, T/C (second compound 10 µM, first compound 0.0316 µM) of 92.4% and a viability, T/C (second compound 10 µM, first compound 0.1 µM) of 94%.
